ChEMBL document CHEMBL1153550, “In vitro study of Candida tropicalis isolates exhibiting paradoxical growth in the presence of high concentrations of caspofungin” (2007)
In brackets after ≈: the same amount, converted by molar mass. Activity calls are given as the source filed them. The calls are words filed in the database; no cut-off is given here.

Columns and labels:
Candida tropicalis [1] = assay: Antifungal activity against > 2 x 10^7 CFU/ml Candida tropicalis isolate 5 in RPMI 1640 medium assessed as partial growth after 24 hrs by broth microdilution method; type: functional, organism-based
Candida tropicalis [2] = assay: Antifungal activity against 2 x 10^7 CFU/ml Candida tropicalis isolate 10 in RPMI 1640 medium after 24 hrs by broth microdilution method; type: functional; settings: isolate 10, 24 h
Candida tropicalis [3] = assay: Antifungal activity against 2 x 10^7 CFU/ml Candida tropicalis ATCC 750 in RPMI 1640 medium after 24 hrs by broth microdilution method; type: functional; settings: ATCC 750, 24 h
Candida tropicalis [4] = assay: Antifungal activity against > 2 x 10^7 CFU/ml Candida tropicalis isolate 2 in antibiotic medium 3 assessed as partial growth after 24 hrs by broth microdilution method; type: functional, organism-based
Candida tropicalis [5] = assay: Fungicidal activity against Candida tropicalis isolate 15 at =< 3.12 ug/ml after 24 to 48 hrs by time-kill assay; type: functional, organism-based
Candida tropicalis [6] = assay: Antifungal activity against 10^5 CFU/ml Candida tropicalis isolate 8 in RPMI 1640 medium at 12.5 ug/ml treated for 24 hrs followed by incubation in drug free medium for 48 hrs by broth microdilution method; type: functional, organism-based
Candida tropicalis [7] = assay: Antifungal activity against 10^5 CFU/ml Candida tropicalis isolate 14 in RPMI 1640 medium at =< 0.09 ug/ml after 24 hrs followed by incubation in drug free medium for 48 hrs by broth microdilution method; type: functional, organism-based
Candida tropicalis [8] = assay: Antifungal activity against 2 x 10^7 CFU/ml Candida tropicalis isolate 4 in RPMI 1640 medium after 24 hrs by broth microdilution method; type: functional; settings: isolate 4, 24 h
Candida tropicalis [9] = assay: Antifungal activity against Candida tropicalis isolate 6 in RPMI 1640 medium assessed as paradoxical growth at 6.25 ug/ml after 24 hrs by broth microdilution method; type: functional, organism-based
Candida tropicalis [10] = assay: Antifungal activity against Candida tropicalis isolate 6 in RPMI 1640 medium assessed as paradoxical growth at 12.5 ug/ml after 48 hrs by broth microdilution method; type: functional, organism-based
Candida tropicalis [11] = assay: Antifungal activity against 10^5 CFU/ml Candida tropicalis isolate 15 in RPMI 1640 medium at 12.5 ug/ml treated for 48 hrs followed by incubation in drug free medium for 48 hrs by broth microdilution method; type: functional, organism-based
Candida tropicalis [12] = assay: Antifungal activity against 10^5 CFU/ml Candida tropicalis isolate 9 in RPMI 1640 medium at 12.5 ug/ml treated for 24 hrs followed by incubation in drug free medium for 48 hrs by broth microdilution method; type: functional, organism-based
Candida tropicalis [13] = assay: Antifungal activity against Candida tropicalis ATCC 750 in RPMI 1640 medium assessed as paradoxical growth at 12.5 ug/ml after 48 hrs by broth microdilution method; type: functional, organism-based
Candida tropicalis [14] = assay: Antifungal activity against 2 x 10^7 CFU/ml Candida tropicalis ATCC 750 in antibiotic medium 3 after 24 hrs by broth microdilution method; type: functional; settings: ATCC 750, 24 h
Candida tropicalis [15] = assay: Antifungal activity against 2 x 10^7 CFU/ml Candida tropicalis isolate 11 in antibiotic medium 3 after 24 hrs by broth microdilution method; type: functional; settings: isolate 11, 24 h
Candida tropicalis [16] = assay: Antifungal activity against > 2 x 10^7 CFU/ml Candida tropicalis isolate 1 in RPMI 1640 medium assessed as partial growth after 24 hrs by broth microdilution method; type: functional, organism-based
Candida tropicalis [17] = assay: Antifungal activity against > 2 x 10^7 CFU/ml Candida tropicalis isolate 7 in RPMI 1640 medium assessed as partial growth after 24 hrs by broth microdilution method; type: functional, organism-based
Candida tropicalis [18] = assay: Antifungal activity against Candida tropicalis isolate 8 in RPMI 1640 medium assessed as paradoxical growth at 12.5 ug/ml after 24 hrs by broth microdilution method; type: functional, organism-based
Candida tropicalis [19] = assay: Antifungal activity against Candida tropicalis isolate 7 in RPMI 1640 medium assessed as paradoxical growth at 12.5 ug/ml after 24 hrs by broth microdilution method; type: functional, organism-based
Candida tropicalis [20] = assay: Antifungal activity against > 2 x 10^7 CFU/ml Candida tropicalis isolate 5 in antibiotic medium 3 assessed as partial growth after 24 hrs by broth microdilution method; type: functional, organism-based
Candida tropicalis [21] = assay: Antifungal activity against 10^5 CFU/ml Candida tropicalis isolate 8 in RPMI 1640 medium at =< 0.09 ug/ml after 24 hrs followed by incubation in drug free medium for 48 hrs by broth microdilution method; type: functional, organism-based
Candida tropicalis [22] = assay: Antifungal activity Candida tropicalis ATCC 750 in RPMI 1640 medium at 0.19 to 6.25 ug/ml after 24 hrs by time-kill assay; type: functional, organism-based
Candida tropicalis [23] = assay: Antifungal activity against 10^5 CFU/ml Candida tropicalis isolate 7 in RPMI 1640 medium at =< 0.09 ug/ml after 24 hrs followed by incubation in drug free medium for 48 hrs by broth microdilution method; type: functional, organism-based
Candida tropicalis [24] = assay: Antifungal activity against Candida tropicalis isolate 14 in RPMI 1640 medium assessed as paradoxical growth at 12.5 ug/ml after 24 hrs by broth microdilution method; type: functional, organism-based
Candida tropicalis [25] = assay: Antifungal activity against > 2 x 10^7 CFU/ml Candida tropicalis isolate 14 in RPMI 1640 medium assessed as partial growth after 24 hrs by broth microdilution method; type: functional, organism-based
Candida tropicalis [26] = assay: Antifungal activity against > 2 x 10^7 CFU/ml Candida tropicalis isolate 6 in antibiotic medium 3 assessed as partial growth after 24 hrs by broth microdilution method; type: functional, organism-based
Candida tropicalis [27] = assay: Antifungal activity Candida tropicalis isolate 4 in RPMI 1640 medium at 0.19 to 6.25 ug/ml after 24 hrs by time-kill assay; type: functional, organism-based
Candida tropicalis [28] = assay: Antifungal activity against > 2 x 10^7 CFU/ml Candida tropicalis isolate 15 in RPMI 1640 medium assessed as partial growth after 24 hrs by broth microdilution method; type: functional, organism-based
Candida tropicalis [29] = assay: Antifungal activity against > 2 x 10^7 CFU/ml Candida tropicalis isolate 13 in RPMI 1640 medium assessed as partial growth after 24 hrs by broth microdilution method; type: functional, organism-based
Candida tropicalis [30] = assay: Antifungal activity against > 2 x 10^7 CFU/ml Candida tropicalis ATCC 750 in antibiotic medium 3 assessed as partial growth after 24 hrs by broth microdilution method; type: functional, organism-based
Candida tropicalis [31] = assay: Antifungal activity against 10^5 CFU/ml Candida tropicalis isolate 8 in RPMI 1640 medium at 12.5 ug/ml treated for 48 hrs followed by incubation in drug free medium for 48 hrs by broth microdilution method; type: functional, organism-based
Candida tropicalis [32] = assay: Antifungal activity against 10^5 CFU/ml Candida tropicalis isolate 6 in RPMI 1640 medium at 12.5 ug/ml treated for 48 hrs followed by incubation in drug free medium for 48 hrs by broth microdilution method; type: functional, organism-based
Candida tropicalis [33] = assay: Antifungal activity against 2 x 10^7 CFU/ml Candida tropicalis isolate 15 in RPMI 1640 medium after 24 hrs by broth microdilution method; type: functional; settings: isolate 15, 24 h
Candida tropicalis [34] = assay: Antifungal activity against 10^5 CFU/ml Candida tropicalis isolate 10 in RPMI 1640 medium at 12.5 ug/ml treated for 48 hrs followed by incubation in drug free medium for 48 hrs by broth microdilution method; type: functional, organism-based
Candida tropicalis [35] = assay: Antifungal activity against 2 x 10^7 CFU/ml Candida tropicalis isolate 2 in antibiotic medium 3 after 24 hrs by broth microdilution method; type: functional; settings: isolate 2, 24 h

## CC[C@H](C)C[C@H](C)CCCCCCCCC(=O)N[C@H]1C[C@@H](O)[C@@H](NCCN)NC(=O)[C@@H]2[C@@H](O)CCN2C(=O)[C@H]([C@H](O)CCN)NC(=O)[C@H]([C@H](O)[C@@H](O)c2ccc(O)cc2)NC(=O)[C@@H]2C[C@@H](O)CN2C(=O)[C@H]([C@@H](C)O)NC1=O [CASPOFUNGIN]
Candida tropicalis [1]
  Activity: inactive
Candida tropicalis [2]
  MIC: 0.024 µg/mL (≈ 0.022 µM)
Candida tropicalis [3]
  MIC: 0.024 µg/mL (≈ 0.022 µM)
Candida tropicalis [4]
  Activity: inactive
Candida tropicalis [5]
  Activity: Active
Candida tropicalis [6]
  Activity: inactive
Candida tropicalis [7]
  Activity: Active
Candida tropicalis [8]
  MIC: 0.024 µg/mL (≈ 0.022 µM)
Candida tropicalis [9]
  Activity: inactive
Candida tropicalis [10]
  Activity: inactive
Candida tropicalis [11]
  Activity: inactive
Candida tropicalis [12]
  Activity: inactive
Candida tropicalis [13]
  Activity: Active
Candida tropicalis [14]
  MIC: 0.024 µg/mL (≈ 0.022 µM)
Candida tropicalis [15]
  MIC: 0.024 µg/mL (≈ 0.022 µM)
Candida tropicalis [16]
  Activity: inactive
Candida tropicalis [17]
  Activity: inactive
Candida tropicalis [18]
  Activity: inactive
Candida tropicalis [19]
  Activity: Active
Candida tropicalis [20]
  Activity: inactive
Candida tropicalis [21]
  Activity: Active
Candida tropicalis [22]
  Activity: Active
Candida tropicalis [23]
  Activity: Active
Candida tropicalis [24]
  Activity: inactive
Candida tropicalis [25]
  Activity: inactive
Candida tropicalis [26]
  Activity: inactive
Candida tropicalis [27]
  Activity: Active
Candida tropicalis [28]
  Activity: inactive
Candida tropicalis [29]
  Activity: inactive
Candida tropicalis [30]
  Activity: inactive
Candida tropicalis [31]
  Activity: inactive
Candida tropicalis [32]
  Activity: inactive
Candida tropicalis [33]
  MIC: 0.024 µg/mL (≈ 0.022 µM)
Candida tropicalis [34]
  Activity: inactive
Candida tropicalis [35]
  MIC: 0.024 µg/mL (≈ 0.022 µM)
